# From patent US20240350647A1, “STING SENSITIZING AGENTS” (STipe Therapeutics ApS, priority 2023, published 2024)
# Where a SMILES comes first, the peptide text is derived from it. Bridges are numbered along the chain shown (N, C = ends). [ ]: non-standard residue; d: D form. The star is where a group is joined. C16 diacid = O=C(O)CCCCCCCCCCCCCCC(=O)*; AEEA = NCCOCCOCC(=O)O
# Legend:
# [1] = FIG. 10B; settings: rat, in vivo, iv, 10 mg/kg
# Protocol: Table printed on a drawing sheet, FIG. 10B
# The patent's description of the figure: FIGS. 10A-10C. Pharmacokinetic profile and parameter for peptides after intravenous administration. FIG. 10A) Mouse PK data (10 mg/kg, bolus IV, n=3 per timepoint). FIG. 10B) Rat PK data (10 mg/kg, bolus IV, n=3 per timepoint). FIG. 10C) Non-human primate (NHP) PK data (4 mg/kg, 30 min IV infusion, n=3). Error bars represent the standard deviation (SD).
# First reader's note: Rat PK parameters; the plot legend on the same sheet gives 10 mg/kg (IV) for both agents, and the top-left cell 'PK parameters / rat' spans the first two rows.
# [2] = Pharmacokinetics after intravenous bolus, mouse; assay type: in vivo; settings: 10 mg/kg bolus IV
# Protocol: (§1) Test agents were formulated in 2% (v/v) propylene glycol in 25 mM HEPES, pH 7.4 and administered with a bolus injection at 10.0 mg/kg via the tail vain to male CD-1 mice (Charles River Laboratories) or male Wistar rats (Charles River Laboratories), or with a 30-min intravenous infusion at 4 mg/kg to male cynomolgus monkeys.
# (§2) Blood samples were collected at 2.5, 5, 10, 30, 60, 120, 240 and 480 minutes after administration (mouse and rat), or at 5, 15, 30, 60, 120, 240, 360, 480 and 1440 min (Agent 1) or at 5, 15, 30, 45, 60, 90, 150, 240 and 480 min (Agent 2) after the start of infusion in monkeys. Samples were immediately mixed with a protease inhibitor cocktail (Roche cOmplete™ EDTA-free) before being cooled and centrifuged for plasma separation. Plasma samples were frozen and stored at −20° C. until analysis.
# (§3) To rat samples, blank rat plasma was added up to a volume of 100 μl. […]
# (§4) Mouse and rat samples: Separation was done with a C18 column (Phenomenex Kinetex XB—C18 (100×2.1 mm, 1.7 μm)), using a gradient between 1% formic acid in water and 2% DMSO in acetonitrile (Agent 1) or acetonitrile (Agent 2). […] The range of quantitation was 4-20,000 ng/mL.
# (§5) Non-compartmental PK analysis on plasma concentration versus time data was analyzed by non-compartmental approaches using the WinNonlin software program (version 6.3 or above, Pharsight, Mountain View, CA). […]
# [3] = Pharmacokinetics after 30-min intravenous infusion, cynomolgus monkey; assay type: in vivo; settings: 4 mg/kg 30 min IV infusion
# Protocol: as §1
# Blood samples were collected at 2.5, 5, 10, 30, 60, 120, 240 and 480 minutes after administration (mouse and rat), or at 5, 15, 30, 60, 120, 240, 360, 480 and 1440 min (Agent 1) or at 5, 15, 30, 45, 60, 90, 150, 240 and 480 min (Agent 2) after the start of infusion in monkeys. […]
# Monkey samples, Agent 1: Separation was done with a C18 column (Waters Acquity UPLC BEH C18 (50×2.1 mm, 1.7 μm)), using a gradient between 0.1% formic acid in water and 0.1% formic acid in acetonitrile. […] The range of quantitation was 10-3,000 ng/mL.
# Monkey samples, Agent 2: Separation was done with a C18 column (Waters Acquity CSH C18 (50×2.1 mm, 1.7 μm)), using a gradient between 0.2% formic acid in acetonitrile and 0.2% formic acid in water. […] The range of quantitation was 10-10,000 ng/mL.
# as §5
# [4] = Pharmacokinetics after intravenous bolus, rat; assay type: in vivo; settings: 10 mg/kg bolus IV
# Protocol: as §1, §2, §3, §4, §5
compound,measurement,setting,value
CC[C@H](C)[C@H](NC(=O)[C@H](CC(N)=O)NC(=O)[C@H](CCCCN)NC(=O)[C@H](C)NC(=O)[C@H](CCCCN)NC(=O)[C@H](CCCCN)NC(=O)COCCOCCNC(=O)COCCOCCNC(=O)CCCCCCCCCCCCCCC(=O)O)C(=O)N[C@H](C(=O)N[C@@H](CC(C)C)C(=O)N[C@@H](CC(C)C)C(=O)N[C@@H](CCCCN)C(=O)NCC(=O)N[C@@H](CC(C)C)C(=O)N[C@@H](CCC(=O)O)C(=O)N[C@H](C(=O)N[C@H](C(=O)N[C@@H](CC(N)=O)C(=O)N[C@@H](CC(=O)O)C(=O)N[C@@H](Cc1c[nH]c2ccccc12)C(=O)N[C@@H](Cc1c[nH]cn1)C(=O)N[C@@H](Cc1ccccc1)C(=O)N[C@H]1CSSC[C@@H](C(N)=O)NC(=O)[C@@H](CCCNC(=N)N)NC(=O)[C@H](CCCNC(=N)N)NC(=O)[C@@H](CCCCN)NC(=O)[C@H](CCCCN)NC(=O)[C@@H](CCCNC(=N)N)NC(=O)CNC(=O)[C@@H](CCCNC(=N)N)NC(=O)[C@H](CCCNC(=N)N)NC(=O)[C@@H](CCCNC(=N)N)NC1=O)[C@@H](C)CC)C(C)C)C(C)C [Agent 1] ({C16 diacid-AEEA-AEEA}-KKAKNIVLLKGLEVINDWHFC[dR]R[dR]G[dR]K[dK]R[dR]C-NH2; disulfide 21-31),C0,[1],72.7 µg/mL
same,"increase in exposure (AUC0-inf) compared to Agent 2, at equal dose",[2],approximately 32 fold
same,"increase in exposure (AUC0-inf) compared to Agent 2, at equal dose",[3],~13 fold
same,"increase in exposure (AUC0-inf) compared to Agent 2, at equal dose",[4],~27 fold
